The values that follow come from patent US20060188485A1, “Autologous self-tolerance inducing cells of monocytic origin and their use in pharmaceutical preparations” (priority 2003, published 2006).

The structures appear in SMILES notation.

The experiment deals with PHA-stimulated lymphocytes. Kind of experiment: Mixed lymphocyte culture with PHA-stimulated lymphocytes, 3[H]-thymidine incorporation. The note with it: 2 μmol 1-MT. In kind it is cell-based, human. The procedure:
In order to clarify, whether the inhibitor of the enzyme indolamine-2,3-dioxygenase (IDO) 1-methyltryptophane (1-MT) influences the suppressor function of the TAIC generated in the “Mo” and “Mo+Ly” set ups (see Example 4), a variety of mixed lymphocyte cultures (MLC) with PHA (phytohaemagglutinine) stimulated T-cells in the presence and in the absence of 1-MT were established.
In these mixed lymphocyte cultures 50.000 lymphocytes with 2 μg PHA were transferred into the wells of a 96-well-plate, followed by a proliferation period over 144 hours (indicated as “PhaLy”). Lymphocytes only cultivated in medium without addition of PHA were run as a further control (indicated as “Ly”). […]
After 144 hours cultivation, all controls or co-cultures were further cultivated for 24 hours in the presence of ^3[H]-thymidine (“pulsed”) and thereafter the amount of radioactively labeled thymidine incorporated was determined as counts per minute (cpm), see FIG. 4. In this arrangement, the amount of the radio activity determined is a measure for the amount of labeled thymidine incorporated into the DNA, and therefore a measure for the proliferation rate of the lymphocytes. […]
(Uptake of a labelled nucleoside into DNA is a usual measure of proliferation.)

On to `Cn1cc(C[C@H](N)C(=O)O)c2ccccc21` [1-MT, 1-methyltryptophane], for which the “influence of 1-MT on the suppressor function of the TAIC” value is listed as “increases the suppressor function of the TAIC synergistically”. Further, the “influence of 1-MT on the suppressor function of the TAIC” value (listed as 1-methyltryptophane) was “no influence”.
